row,melting point [°C],Compound
1,161 to 165,"O=C(NCc1ncc(Cl)cc1Cl)c1c(Cl)cccc1Cl [Compound 59, N-[(3,5-dichloro-2-pyridyl)methyl]-2,6-dichlorobenzamide]"
2,83 to 84,"CN(Cc1ncc(C(F)(F)F)cc1Cl)C(=O)c1c(Cl)cccc1Cl [Compound 63, N-[(3-Chloro-5-trifluoromethyl-2-pyridyl)methyl]-N-methyl-2,6-dichlorobenzamide]"
3,164 to 168,O=C(NC(Cc1ccccc1)c1ncc(C(F)(F)F)cc1Cl)c1c(Cl)cccc1Cl (centres unmarked)
4,40 to 43,CCOC(=O)C(NC(=O)c1ccc(OC)c(OC)c1)c1ncc(CF)cc1Cl (centres unmarked)
5,102 to 105,"FC(F)(F)c1cnc(CNC(=S)c2ccccc2Cl)c(Cl)c1 [Compound 701, N-[(3-Chloro-5-trifluoromethyl-2-pyridyl)methyl]-2-chlorobenzenethioamide]"

# Reference: patent publication US6828441B2 (priority 1998, dated 2004)
